Laboratory results published in PubChem BioAssay (NCI).
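1) Cells in 96-well plates. 2) Compound, 48 h, 5 concentrations. 3) Linear interpolation between surrounding doses. 4) Unreached endpoint = highest concentration. TGI denotes the concentration required for complete inhibition of growth.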

Assays:
Experiment in all cases: NCI-60 cell line screen, 48 h
PC-3 prostate = tested on: PC-3 prostate
SK-MEL-28 melanoma = tested on: SK-MEL-28 melanoma
MDA-N = tested on: MDA-N
MOLT-4 leukemia = tested on: MOLT-4 leukemia
CAKI-1 renal = tested on: CAKI-1 renal
786-0 renal = tested on: 786-0 renal
EKVX NSCLC = tested on: EKVX NSCLC
SNB-75 CNS = tested on: SNB-75 CNS
UACC-257 melanoma = tested on: UACC-257 melanoma
TK-10 renal = tested on: TK-10 renal
NCI-H226 lung = tested on: NCI-H226 lung
SNB-19 CNS = tested on: SNB-19 CNS
UO-31 renal = tested on: UO-31 renal
ACHN renal = tested on: ACHN renal
U251 CNS = tested on: U251 CNS
SK-MEL-5 melanoma = tested on: SK-MEL-5 melanoma
MDA-MB-231 breast = tested on: MDA-MB-231 breast
SW-620 colon = tested on: SW-620 colon
SK-OV-3 ovarian = tested on: SK-OV-3 ovarian
CCRF-CEM leukemia = tested on: CCRF-CEM leukemia
RXF 393 renal = tested on: RXF 393 renal
SF-268 CNS = tested on: SF-268 CNS
SF-539 CNS = tested on: SF-539 CNS
RPMI-8226 leukemia = tested on: RPMI-8226 leukemia
KM12 colon = tested on: KM12 colon
SN12C renal = tested on: SN12C renal
HS 578T breast = tested on: HS 578T breast
OVCAR-5 ovarian = tested on: OVCAR-5 ovarian
HCC-2998 colon = tested on: HCC-2998 colon
LOX IMVI melanoma = tested on: LOX IMVI melanoma
SF-295 CNS = tested on: SF-295 CNS
COLO 205 colon = tested on: COLO 205 colon
HOP-62 NSCLC = tested on: HOP-62 NSCLC
NCI/ADR-RES ovarian = tested on: NCI/ADR-RES ovarian
UACC-62 melanoma = tested on: UACC-62 melanoma
A549 NSCLC = tested on: A549 NSCLC
SK-MEL-2 melanoma = tested on: SK-MEL-2 melanoma
MDA-MB-435 = tested on: MDA-MB-435
A498 renal = tested on: A498 renal
OVCAR-4 ovarian = tested on: OVCAR-4 ovarian
DU-145 prostate = tested on: DU-145 prostate
M14 melanoma = tested on: M14 melanoma
MCF7 breast = tested on: MCF7 breast
HCT-116 colon = tested on: HCT-116 colon
HCT-15 colon = tested on: HCT-15 colon
K-562 leukemia = tested on: K-562 leukemia
OVCAR-3 ovarian = tested on: OVCAR-3 ovarian
HOP-92 NSCLC = tested on: HOP-92 NSCLC
T-47D breast = tested on: T-47D breast
NCI-H522 lung = tested on: NCI-H522 lung
NCI-H460 lung = tested on: NCI-H460 lung
MALME-3M melanoma = tested on: MALME-3M melanoma
HL-60(TB) leukemia = tested on: HL-60(TB) leukemia
SR leukemia = tested on: SR leukemia
HT29 colon = tested on: HT29 colon
IGROV1 ovarian = tested on: IGROV1 ovarian
NCI-H23 lung = tested on: NCI-H23 lung
BT-549 breast = tested on: BT-549 breast

CC1(C)C(CCO)CC1n1cc(I)c(=O)[nH]c1=O (centres undefined)
TGI (PC-3 prostate): > 100 µM | TGI (SK-MEL-28 melanoma): > 100 µM | TGI (MDA-N): > 100 µM | TGI (MOLT-4 leukemia): > 100 µM | TGI (CAKI-1 renal): > 100 µM | TGI (786-0 renal): > 100 µM | TGI (EKVX NSCLC): > 100 µM | TGI (SNB-75 CNS): > 100 µM | TGI (UACC-257 melanoma): > 100 µM | TGI (TK-10 renal): > 100 µM | TGI (NCI-H226 lung): > 100 µM | TGI (SNB-19 CNS): > 100 µM | TGI (UO-31 renal): > 100 µM | TGI (ACHN renal): > 100 µM | TGI (U251 CNS): > 100 µM | TGI (SK-MEL-5 melanoma): > 100 µM | TGI (MDA-MB-231 breast): > 100 µM | TGI (SW-620 colon): > 100 µM | TGI (SK-OV-3 ovarian): > 100 µM | TGI (CCRF-CEM leukemia): > 100 µM | TGI (RXF 393 renal): > 100 µM | TGI (SF-268 CNS): > 100 µM | TGI (SF-539 CNS): > 100 µM | TGI (RPMI-8226 leukemia): > 100 µM | TGI (KM12 colon): > 100 µM | TGI (SN12C renal): > 100 µM | TGI (HS 578T breast): > 100 µM | TGI (OVCAR-5 ovarian): > 100 µM | TGI (HCC-2998 colon): > 100 µM | TGI (LOX IMVI melanoma): > 100 µM | TGI (SF-295 CNS): > 100 µM | TGI (COLO 205 colon): > 100 µM | TGI (HOP-62 NSCLC): > 100 µM | TGI (NCI/ADR-RES ovarian): > 100 µM | TGI (UACC-62 melanoma): > 100 µM | TGI (A549 NSCLC): > 100 µM | TGI (SK-MEL-2 melanoma): > 100 µM | TGI (MDA-MB-435): > 100 µM | TGI (A498 renal): > 100 µM | TGI (OVCAR-4 ovarian): > 100 µM | TGI (DU-145 prostate): > 100 µM | TGI (M14 melanoma): > 100 µM | TGI (MCF7 breast): > 100 µM | TGI (HCT-116 colon): > 100 µM | TGI (HCT-15 colon): > 100 µM | TGI (K-562 leukemia): > 100 µM | TGI (OVCAR-3 ovarian): > 100 µM | TGI (HOP-92 NSCLC): > 100 µM | TGI (T-47D breast): > 100 µM

O=c1cc(NNc2cccc(F)c2)[nH]c(=O)[nH]1
TGI (PC-3 prostate): > 100 µM | TGI (SK-MEL-28 melanoma): > 100 µM | TGI (MDA-N): > 100 µM | TGI (NCI-H522 lung): 35.3 µM | TGI (MOLT-4 leukemia): 84.3 µM | TGI (CAKI-1 renal): 29.9 µM | TGI (786-0 renal): 30.1 µM | TGI (SNB-75 CNS): > 100 µM | TGI (UACC-257 melanoma): 34.8 µM | TGI (TK-10 renal): 27.2 µM | TGI (NCI-H226 lung): > 100 µM | TGI (SNB-19 CNS): > 100 µM | TGI (UO-31 renal): 95.8 µM | TGI (ACHN renal): > 100 µM | TGI (NCI-H460 lung): > 100 µM | TGI (U251 CNS): 31 µM | TGI (SK-MEL-5 melanoma): > 100 µM | TGI (MDA-MB-231 breast): 30.4 µM | TGI (SW-620 colon): 34.5 µM | TGI (SK-OV-3 ovarian): > 100 µM | TGI (CCRF-CEM leukemia): 55.9 µM | TGI (RXF 393 renal): 35.1 µM | TGI (SF-268 CNS): > 100 µM | TGI (SF-539 CNS): > 100 µM | TGI (RPMI-8226 leukemia): 47.4 µM | TGI (KM12 colon): > 100 µM | TGI (MALME-3M melanoma): 34.9 µM | TGI (SN12C renal): > 100 µM | TGI (HL-60(TB) leukemia): 44.6 µM | TGI (SR leukemia): 61.7 µM | TGI (HS 578T breast): > 100 µM | TGI (OVCAR-5 ovarian): > 100 µM | TGI (HCC-2998 colon): > 100 µM | TGI (LOX IMVI melanoma): 36.9 µM | TGI (SF-295 CNS): > 100 µM | TGI (COLO 205 colon): > 100 µM | TGI (HOP-62 NSCLC): > 100 µM | TGI (HT29 colon): 29.9 µM | TGI (NCI/ADR-RES ovarian): > 100 µM | TGI (UACC-62 melanoma): > 100 µM | TGI (A549 NSCLC): > 100 µM | TGI (SK-MEL-2 melanoma): > 100 µM | TGI (IGROV1 ovarian): 46.7 µM | TGI (A498 renal): > 100 µM | TGI (NCI-H23 lung): > 100 µM | TGI (OVCAR-4 ovarian): > 100 µM | TGI (BT-549 breast): > 100 µM | TGI (DU-145 prostate): > 100 µM | TGI (M14 melanoma): 33.9 µM | TGI (HCT-116 colon): 31 µM | TGI (HCT-15 colon): 30.9 µM | TGI (K-562 leukemia): 84.4 µM | TGI (OVCAR-3 ovarian): 30.1 µM | TGI (HOP-92 NSCLC): 30 µM | TGI (T-47D breast): 31.7 µM
